The test system of one series is MIA Paca-2 cells. Briefly: MIA Paca-2 MTT viability test. The format is cell-based, human. To be noted: 120 μM/L, 2 hours. Here is the method: (§1) MIA Paca-2 cells are human pancreatic cancer cells [American Tissue Cell Culture (ATCC, Manassas, Va., USA)] cultured in DMEM medium. The MTT viability test is performed at a cell density of 0.1×10*6 cells/mL. The tested products are incubated for 2 hours at a concentration of 120 μM/L and in triplicate, with culture control (ref: Blank) (100%) and a positive DMSO control (5%). Under these conditions, cell viability is 34% in the presence of FAD alone, 6% with FAD-PEG.

The test system of series [1] is Monocytes isolated from peripheral blood (PBMC). Briefly: Viability of non-cancerous peripheral blood monocytes (PBMC). It is filed as cell-based.
Series [2] concerns CEM (myeloid leukaemia) cells. The series can be described thus: Viability of CEM myeloid leukaemia cells. It is filed as cell-based. As to conditions: 48 hours incubation; read-out: mean IC50, viability of cancer cells in the lineage.
Another series has as its system cancer cells in culture. The series can be described thus: Growth inhibition of cancer cells in culture. The format is cell-based. As to conditions: read-out: inhibitory concentration (IC50) reducing growth of cancer cells in culture by 50%.
Series [3] has as its system Nucleo PyroPhosphatase enzyme. The series can be described thus: Protection of FAD against Nucleo PyroPhosphatase hydrolysis (HPLC). The format is in vitro ADME. To be noted: 25° C. Here is the method:
FAD protection in particles in comparison with unbound FAD is studied. Different particles containing FAD are compared to unbound FAD: • The FAD encapsulated with a gold FAD-PEG particle ON is obtained by the ON method described in example 2. • The FAD encapsulated with a gold-FAD-PEG particle IN is obtained by the IN method obtained in example 1. The different particles and the unbound FAD are each placed in a solution of the Nucleo PyroPhosphatase enzyme at 25° C. The concentration of the FAD is monitored over time by HPLC assay.

The subject of series [4] is HT22 cells (murine brain tumour). The series can be described thus: HT22 growth inhibition, MTS test. The format is cell-based. As to the method: HT22 cells (murine brain tumour) are tested with the gold-FAD-PEG particle obtained by the IN method.
Series [5] can be described thus: MIA Paca-2 MTT viability test. It is filed as cell-based, human. As to conditions: human, MIA Paca-2 cells, read-out: cell viability. As to the method:
as §1

A short description of series [6]: Resistance to hydrolysis in serum. To be noted: 20 hours. It is filed as in vitro ADME. As to the method: A comparative hydrolysis test of unbound FAD and micrometer-sized FAD-PEG obtained in Example 7 is performed in serum to test resistance to enzymes.
The subject of series [7] is HT-1080 fibrosarcoma cells. The series can be described thus: Viability of HT-1080 cells. The format is cell-based. As to conditions: Homo sapiens.
The subject of series [8] is HepG2 hepatocellular carcinoma. Briefly: Viability of HepG2 cells. It is filed as cell-based. As to conditions: Homo sapiens.
Another series relates to Huh-7replicon. Briefly: Viability of Huh-7replicon cells. The format is cell-based.
For series [9], the system named is MiaPaCA2 pancreatic cancer. Briefly: Viability of MiaPaCA2 cells (Example 14). The format is cell-based.
The test system of another series is DNA aptamer. The series can be described thus: Intercalation in DNA aptamer grafted on gold nanoparticles. To be noted: 5 mg/ml, UV visible and RAMAN. The format is binding. An excerpt:
Small molecules with aromatic structures are intercalated into DNA, which is the case of some extremely powerful and effective drugs. The hypothesis that FAD intercalates into DNA has been tested using a DNA aptamer grafted onto the surface of nanoparticles (NP).
The aptamer used is a single-stranded, thiolated DNA sequence of formula 5′HS-TT TTTTTTTTTTTTTTCTTCTCTAGCTGAATAACCGGAAGTAACTCATCGTTTCGATGAGTTACTTCCGGTTATTCAGCTAGAGAAG 3′, grafted to the surface of gold nanoparticles in the presence of a catalyst agent (N-[3-(dimethylamino) propyl]-N′-ethylcarbodiimide/N-hydroxysuccinimide, Sigma-Aldrich) (EDC/NHS), 50 μL, of DNA with a ratio (40 mg/10 mg) to 5 ml of gold NP solution, to allow activation of the carboxylic group (PEG-COOH) on the surface of the nanoparticles for immobilisation of the aptamer by covalent bonds. The bond is made between the carboxyl group of the EDC/NHS-activated PEG and the NH2 groups of the aptamer.
The grafting of the DNA on the surface of the gold nanoparticles is verified by UV spectroscopy (UV-visible absorbance measurements).
The particles were then placed in the presence of FAD or FAG-PEG (5 mg/ml, two formulations) and DNA intercalation, detected and measured by two techniques: UV visible and by RAMAN spectroscopy.

Series [10] relates to murine breast cancer cell line 4T1. The series can be described thus: 4T1 breast cancer model in mice. To be noted: compared to control groups. It is filed as in vivo, BALB/c mice.
For series [11], the system named is Mouse HEP 1-6 liver cancer cells. The series can be described thus: HEP 1-6 liver cancer model in mice. The format is in vivo.
In series [12] the test system is MCF7 (breast cancer) cancer cells. Briefly: MCF7 growth inhibition, MTS test. As to conditions: 48 hours. It is filed as cell-based. As to the method:
Growth inhibition of MCF7 (breast cancer) cancer cells is tested on MCF7 cells in culture for 48 hours in contact with the gold-FAD-PEG particle with or without a targeting agent obtained by the IN method. […] (Promega—Cell Titer Proliferation Assay).

`C[S+](C)[O-]` [DMSO, reference compound]: the cell viability with MIA Paca-2 cells is reported as 5%.

On to `Cc1cc2nc3c(=O)[nH]c(=O)nc-3n(CC(O)C(O)C(O)COP(=O)(O)OP(=O)(O)OC[C@H]3O[C@@H](n4cnc5c(N)ncnc54)C(O)C3O)c2cc1C` (stereo partly drawn) [FAD, Flavin Adenine Dinucleotide], for which the IC50 in series [1] (48 hours incubation, read-out: IC50, viability of primary non-cancerous cells) is over 100000 nM; in series [2], 1600 nM; in the series with cancer cells in culture it was 500 to 5000 nM; in [4] (Mus musculus, HT-22, Example 14, read-out: IC50, viability of HT22 neuronal cancer cells), 1600 nM; in series [7] it was 1100 to 1800 nM; in series [8], 1100 to 1800 nM. Also, the IC50 in the series with Huh-7replicon is 1100 to 1800 nM; in [9] (Homo sapiens, MIA PaCa-2, MiaPaCA2) it was 10000 nM. Moreover, in [1] (normal blood monocytes PBM cells), the GI50 was over 100000 nM. Also, the “time to full hydrolysis of FAD” value in series [3] was at most 15 min. For the same molecule, the viability at 2 hours, 120 μM/L in series [5] was 34%. The hydrolysis in serum entry in series [6] is reported as “almost completely hydrolyzed”. Moreover, the “viability of the cells” value in series [9] (90 μM, 24 hours of exposure) is “significantly altered”. Moreover, the DNA intercalation entry in the series on DNA aptamer is on record as “intercalates to DNA”. In addition, the IL-10 content result in series [10] was “significantly increased”. In series [10], the “level of IL-1α” value is reported as “significantly reduced”. In series [10], the “level of IL-1 β” value was “significantly reduced”. In series [10], the “level of IL-6” value is “significantly reduced”. Further, the “level of IL-12P70” value in series [10] was “significantly reduced”. The “level of TNF α” value in series [10] is on record as “significantly reduced”. Further, in series [11], the “reduction in tumour volume” value is listed as 24%.

As to `CN[C@@H]1C[C@H]2O[C@@](C)([C@@H]1OC)n1c3ccccc3c3c4c(c5c6ccccc6n2c5c31)C(=O)NC4` [staurosporin, reference compound], the GI50 in [12] is about 40000 nM; in series [4] (read-out: 50% growth inhibition (GI 50), 48 hours, MTS), 2700 nM.

For the origin of these results see patent publication US20220008451A1, “FLAVIN ADENINE DINUCLEOTIDE (FAD) FOR USE IN THE PREVENTION AND/OR TREATMENT OF CANCER” (priority 2018, published 2022).
